Measurements: publication PMC10062662, “Quantitative determination of lurbinectedin, its unbound fraction and its metabolites in human plasma utilizing ultra-performance LC–MS/MS” (PLOS ONE, 2023)
Like-named read-outs stand apart in the source and are kept apart here.

Columns and labels:
[1] = Plasma protein binding by RED in artificial plasma (PBS with recombinant human AAG and albumin); assay type: in vitro ADME; conditions: human; for fraction unbound at 8 h, 500 ng/mL: lurbinectedin 500 ng/mL
From the text: (§1) RED was considered the best alternative over other methods (e.g., ultrafiltration) to separate lurbinectedin unbound fraction (fu), due to high non-specific binding (NSB) of lurbinectedin leading to adsorption. The RED device consists of a cylinder of dialysis membrane with an 8-kDa molecular weight cut-off held in place by a polytetrafluoroethylene support; the dialysis membrane tube is closed at one end. The RED devices are disposable and used in a reusable polytetrafluoroethylene support plate (holds a maximum of 48 devices). The design of the plate and device allows for PBS to be added in such a way that it can circulate freely around the cylinder of dialysis membrane. In use, spiked plasma (400 μL) is added to the dialysis membrane cylinder part of the RED device, and PBS (600 μL) is added to the other side. The plate, device and volumes used result in a consistent fluid level across both sides of the membrane, preventing mass movement of fluid across the membrane due to hydrostatic pressure.
(§2) Each measurement was performed using three RED devices; the devices were placed in the plate and spiked plasma and PBS were added. The plate was then mixed on an incubating microplate shaker at 100 rpm and 37°C for 8 hours.
(§3) Both the plasma (diluted 1 in 20 with plasma:PBS 1:1, v:v) and PBS (diluted with plasma 1:1, v:v) were assayed in triplicate using the extraction and UPLC-MS/MS method described above. Transfer of the PBS from the incubation plate into an equivalent volume of plasma prior to assay was performed using pipette tips that had been pre-treated with Sigmacote®.
(§4) PPB of lurbinectedin was also studied in artificial plasma (PBS with recombinant human AAG and albumin) at different levels of AAG, albumin and lurbinectedin to estimate the dissociation rate constants for each of these plasma proteins. Several experimental conditions, performed in triplicate, with triplicate analyses, were explored:
(§5) • Condition 1 with lurbinectedin at 500 ng/mL, AAG at 0, 0.25, 0.75, 1, 2 and 4 mg/mL and albumin at 40 mg/mL. • Condition 2 with lurbinectedin at 500 ng/mL, AAG at 1 mg/mL and albumin at 25, 35, 40, 45 and 50 mg/mL. • Condition 3 with lurbinectedin at 50, 75, 100, 250 and 500 ng/mL, AAG at 1 mg/mL and albumin at 40 mg/mL.

[2] = target: T1, recombinant human AAG and albumin (Homo sapiens, UniProt P02768); test: as above; assay type: in vitro ADME; conditions: without AAG, albumin 40 mg/mL, lurbinectedin 500 ng/mL
T1 construct: purchased Sigma-Aldrich
T1 sequence (P02768 25-609): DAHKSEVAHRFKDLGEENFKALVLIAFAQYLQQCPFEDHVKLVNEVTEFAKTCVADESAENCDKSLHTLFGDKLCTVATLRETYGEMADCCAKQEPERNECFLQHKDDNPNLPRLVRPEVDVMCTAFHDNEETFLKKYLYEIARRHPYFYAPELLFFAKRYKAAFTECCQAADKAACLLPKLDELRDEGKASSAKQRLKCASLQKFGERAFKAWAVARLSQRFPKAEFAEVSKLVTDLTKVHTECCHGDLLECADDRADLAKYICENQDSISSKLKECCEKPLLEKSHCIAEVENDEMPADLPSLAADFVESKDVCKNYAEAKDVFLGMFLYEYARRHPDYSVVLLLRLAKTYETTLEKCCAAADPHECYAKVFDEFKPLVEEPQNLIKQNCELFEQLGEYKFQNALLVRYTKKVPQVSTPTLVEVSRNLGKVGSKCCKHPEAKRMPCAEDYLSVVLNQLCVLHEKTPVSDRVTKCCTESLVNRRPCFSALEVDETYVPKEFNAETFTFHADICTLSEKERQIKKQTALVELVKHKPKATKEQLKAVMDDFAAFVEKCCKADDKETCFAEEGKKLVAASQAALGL
From the text: as §1, §2, §3, §4, §5

[3] = test system: recombinant human AAG and albumin; test: as above; assay type: in vitro ADME
From the text: as §1, §2, §3, §4, §5

[4] = assay type: in vitro ADME; conditions: 20 ng/mL
Protocol: To ensure correct sample collection during the clinical trial procedures, whole-blood (using K3-EDTA as anticoagulant) stability was studied by spiking the blood (lurbinectedin at 20 ng/mL and M4 and M6 at 10 ng/mL). Aliquots of the whole blood were then centrifuged at 4°C for 0, 30, 60, 90 and 120 minutes post equilibration (15 minutes at 37°C) to produce plasma, which was then frozen prior to analysis. This was performed at room temperature (and in an ice bath for lurbinectedin). The derived plasma samples were analyzed in triplicate, and the criterion for acceptance was defined as having a response within ±15% of the zero-minute sample.

[5] = Stability of stock and working solutions at -20°C; assay type: physicochemical; conditions: -20°C ±5°C
Protocol: The stability of stock and working solutions, as well the stability of IS stock solution, following storage at -20°C ±5°C were investigated by concordance verification by comparing the stored solution against a freshly prepared one.

[6] = Lurbinectedin concentration in treated patient plasma sample (UPLC-MS/MS); assay type: in vivo, human; conditions: single treated patient plasma sample of Fig 2
Protocol: The sample extraction was performed by adding 100 μL of the CS, QC or test sample, 50 μL of aqueous IS solution and 50 μL of 1 M ammonium hydroxide to a 300-μL 96-well microtiter plate. This was then mixed and transferred to a 200-mg Isolute SLE+ plate. After 5 minutes of equilibrium, the samples were then eluted from the SLE plate with 1 mL of MTBE into glass inserts and dried under nitrogen. The samples were then reconstituted with 40 μL of acetonitrile:water (1:1, v:v) with 0.1% of formic acid prior to analysis.
The ultra-performance liquid chromatography (UPLC) system was coupled to a triple quadrupole mass spectrometer. The UPLC system was a Acquity system (Waters, Milford, MA, USA) and composed of a binary pump, column oven and cooled auto sampler. The mass spectrometer was a TQD with an electrospray ionization source from Waters.
The analytical column was a BEH C18 (1.7 μm, 50 × 2.1 mm) and was used in conjunction with a pre-column frit (0.2 μm, 2.1 mm) from Waters. The chromatographic separation was performed at 50°C with a flow rate of 0.4 mL/minute utilizing a linear gradient of water (A) and acetonitrile (B), both with 0.1% ammonium hydroxide: 10% to 100% B from 0.00 to 1.00 minute; isocratic at 100% B for 1.50 minute, then returning to initial conditions from 2.50 to 2.51 minutes with a total run time of 3.5 minutes. The samples were kept at 10°C until injection (10 μL). […]

[7] = set-up: method as in PMID 30090974; conditions: cited from earlier work; for reduction of total plasma clearance: 443 cancer patients

Compound `COc1ccc2[nH]c3c(c2c1)CCN[C@]31CS[C@@H]2c3c(OC(C)=O)c(C)c4c(c3[C@H](COC1=O)N1[C@@H]2[C@H]2c3c(cc(C)c(OC)c3O)C[C@@H]([C@@H]1O)N2C)OCO4` [Lurbinectedin] has a fraction unbound at 8 h, 500 ng/mL ([1]; AAG 0.25 mg/mL, albumin 40 mg/mL, read-out: mean percent unbound) of 0.0168, a fraction unbound at 8 h, 500 ng/mL ([1]; AAG 0.75 mg/mL, albumin 40 mg/mL, read-out: mean percent unbound) of 0.00604 and a fraction unbound at 8 h, 500 ng/mL ([1]; AAG 1 mg/mL, albumin 40 mg/mL, read-out: mean percent unbound) of 0.00473. It also gave a fraction unbound at 8 h, 500 ng/mL ([1]; AAG 2 mg/mL, albumin 40 mg/mL, read-out: mean percent unbound) of 0.00259, a fraction unbound at 8 h, 500 ng/mL ([1]; AAG 4 mg/mL, albumin 40 mg/mL, read-out: mean percent unbound) of 0.00101 and a fraction unbound at 8 h, 500 ng/mL ([1]; condition 2: varying albumin 25-50 mg/mL, AAG 1 mg/mL, read-out: fu (percent unbound)) of 0.00404. The fraction unbound at 8 h ([1]; condition 3: varying lurbinectedin 50-500 ng/mL, AAG 1 mg/mL, albumin 40 mg/mL, read-out: fu (percent unbound)) was 0.00393, the fraction unbound at 8 h, 500 ng/mL ([2]; human, read-out: mean percent unbound) was 0.0895 and the percent bound [2] was 91.1%. It also gave a percent bound ([3]; AAG 0.25 mg/mL, albumin 40 mg/mL, lurbinectedin 500 ng/mL) of 98.3%, a percent bound ([3]; AAG 0.75 mg/mL, albumin 40 mg/mL, lurbinectedin 500 ng/mL) of 99.4% and a percent bound ([3]; AAG 1 mg/mL, albumin 40 mg/mL, lurbinectedin 500 ng/mL) of 99.5%. The percent bound ([3]; AAG 2 mg/mL, albumin 40 mg/mL, lurbinectedin 500 ng/mL) was 99.7%, the percent bound ([3]; AAG 4 mg/mL, albumin 40 mg/mL, lurbinectedin 500 ng/mL) was 99.9% and the percent bound ([3]; condition 2: varying albumin 25-50 mg/mL, AAG 1 mg/mL, lurbinectedin 500 ng/mL) was 99.6%. The percent bound ([3]; condition 3: varying lurbinectedin 50-500 ng/mL, AAG 1 mg/mL, albumin 40 mg/mL) was 99.6%, the “stability in human whole K3-EDTA blood” value [4] was at least 120 min and the “stability of working solution following storage for 7 days” value ([5]; 5 ng/mL in DMSO:ammonium acetate 10 mM ~pH 3 (1:1, v:v)) was “not demonstrated”. For the same compound, the “stability of stock solution in DMSO” value ([5]; 1 mg/mL in DMSO) was at least 32 days, the “plasma concentration in a treated patient sample” value [6] was 177 ng/mL and the hepatic extraction ratio [7] was 0.19. The “reduction of total plasma clearance” value ([7]; high alpha-1-acid glycoprotein (AAG)) was 28% and the “reduction of total plasma clearance” value ([7]; low albumin) was 20%.
